# Read-outs that look alike come from different tables or passages of the source.
# How the values were obtained:
# [1] = system: Feline Infectious Peritonitis Type 2 (“FIP Type 2”) corona virus; assay: Virucidal bioassay: FIP-2 corona virus suspension exposed to test article, then titrated in CrFK cell culture (TCID50, Reed and Muench); format: cell-based, Feline Infectious Peritonitis Type 2 corona virus; settings: for FIP-2 Titer / % Reduction / Reduction in Titer: 300 seconds exposure; for FIP-2 Titer: control titer 6.70 logs/ml
# Source text: (§1) Untreated virus served as controls. […] They were then observed microscopically for CPE inhibition, reporting titers as TCID 50/ml, also expressed as plaque forming units (pfu's). The corrected virus titer (# positives×dilution) is reported in log/ml. Virucidal activity is thus defined as the number of logs reduction of virus titer between the test article and the control (Reed and Muench, Am. J. Hyg. 27:493-497, 1938).
# CrFK cell culture = assay: Cell toxicity / cytopathic effect on host cells in the FIP-2 corona virus test; format: cell-based
# Source text: as §1
# [2] = system: influenza A/Equi 2?Miami 1/63, ATCC VR517; assay: Virucidal assay: influenza virus exposed to CPC solutions, titrated in MDCK cell culture (Reed and Muench); format: cell-based, Orthomyxoviridie virus (influenza A/Equi 2)
# [3] = system: MDCK (NBL-2)5 (ATCC type CCL-34) cell culture
# FeLV retrovirus = settings: for reduction in the viral titer: 300 seconds, titer 6.0 logs/ml
# Protocol: (§2) FeLV retrovirus was gown in cell culture to a titer of 6.0 logs/ml.
# (§3) Briefly, virus suspensions were exposed to three concentrations of CPC, 0.025%, 0.05%, and 0.10%, for 300 seconds. Untreated virus served as controls. At the end of the exposure, the virus was titrated in CrFK cell culture. Viral titration was accomplished at each test article concentration by seeding 0.1 ml of a serial dilution of treated virus to the CrFK cell culture. Serial dilutions were prepared from 10^−1 to 10^−8 of the original virus concentration, or five million/ml (6.7 log units) and each dilution then placed in each of four wells (replicates) of a 96 well microplate. The inoculated cells (80 μl per well) are then incubated at 37° C. in a CO2 incubator for five days.
# [4] = system: CrFK (ATCC type CCL-94) cell culture; assay: Cytotoxicity of CPC in the FeLV test
# Protocol: as §2, §3
# pH of acid solutions = format: physicochemical; settings: at 0.1%
structure (smiles),measurement,setting,value
"CCCCCCCCCCCCCCCC[n+]1ccccc1 [CPC, Cetylpyridinium chloride]",FIP-2 Titer,[1]; CPC 0.025%,3.30 logs/ml
same,% Reduction,[1]; CPC 0.05%,99.97%
same,Reduction in Titer,[1]; CPC 0.05%,>3.20 logs
same,FIP-2 Titer,[1]; CPC 0.05%,<3.50 logs/ml
same,% Reduction,[1]; CPC 0.10%,99.97%
same,Reduction in Titer,[1]; CPC 0.10%,>3.20 logs
same,FIP-2 Titer,[1]; CPC 0.10%,<3.50 logs/ml
same,adverse cytopathic effects,"CrFK cell culture; 0.025% in solution, five minutes",without adverse cytopathic effects
same,reduction to the virus titers,[2]; 0.025% (weight/volume) CPC with 0.1% citric acid (weight/volume),greater than 3.5 log
same,reduction to the virus titers,[2]; 0.05% (weight/volume) CPC with 0.1% citric acid (weight/volume),greater than 3.5 log
same,cytotoxic affects,[3]; test solutions containing 0.025% CPC and 0.1% citric acid,no observed cytotoxic affects
same,reduction in the viral titer,FeLV retrovirus; CPC 0.025% in conjunction 0.1% citric acid,greater than 3.5 logs/ml
same,reduction in the viral titer,FeLV retrovirus; CPC 0.025% without citric acid,greater than 3.5 logs/ml
same,reduction of the FeLV virus,"FeLV retrovirus; all three levels of CPC (0.025%, 0.05%, 0.10%) with or without citric acid at 0.1%",100%
same,cytotoxic,[4]; CPC 0.025%,not cytotoxic
same,cytotoxic,[4]; CPC 0.05%,cytotoxic
same,cytotoxic,[4]; CPC 0.1%,cytotoxic
"Oc1cc(Cl)ccc1Oc1ccc(Cl)cc1Cl [Triclosan, triclosan]",viral reduction,"[1]; all three levels (0.025%, 0.05%, 0.10%)",no viral reduction
same,cellular toxicity,"CrFK cell culture; three concentrations as employed with CPC (0.025%, 0.05%, 0.10%)",cellular toxicity at all three levels
CC(=O)O [acetic acid],pH,pH of acid solutions,2.3
O=C(O)CC(O)(CC(=O)O)C(=O)O [citric acid],pH,pH of acid solutions,2.3
same,cytotoxic,[3]; acid solution at 0.1%,neither solution was cytotoxic

# From patent publication US20090232748A1 (ViraTox, L.L.C., priority 2003, published 2009)
